Tests used:
MDA-MB-231 cells [1] = assay: Morphology of cells post addition of carboplatin; type: cell-based
Source text: For these studies carboplatin sensitivity of MDA-MB-231 cells was investigated as previously mentioned. Different subpopulations were obtained for subsequent studies on scaffolds. Under normal condition, BCCs population in culture can be seen to be composed of a heterogeneous population of giant multi-nucleated cells mixed with small single-nucleated cells (FIGS. 38a and b.). […] Therefore, cells at 3-4 days post treatment were selected as being carboplatin resistant MDA-MB-231 cells.

MDA-MB-231 cells [2] = assay: Carboplatin cytotoxicity, trypan blue test; type: cell-based
Method: (§1) For determination of cell viability, treated as well as non-treated cells were used. MDA-MB-231 and T47D cells were seeded in T-175 tissue culture flasks. At 80% confluency, the growth media was replaced with fresh media containing different concentrations of carboplatin for 48 and 72 h. All experiments were repeated twice. After treatment, the culture media was collected in a 50 ml centrifugation tube, since it might contain dead cells necessary for cell counts. The cell monolayer was washed with PBS and then collected in the same tube. Cells were treated with Trypsin and, Trypsin with the cells was collected in the same 50 ml tube. The suspension was centrifuged (5 min, 1200 rpm) and the supernatant removed. The pellet was washed with PBS, centrifuged (5 min, 1200 rpm) and re-suspended again in complete culture media. Then, a small aliquot of the cell suspension (25 μl) was mixed with the same volume of 0.4% trypan blue (Sigma) solution and the sample was counted after 2 min of staining using a haemocytometer. The number of bright (viable) cells and blue cells (non-viable) were evaluated using a light microscope with a 20-fold magnification. After counting, the cell viability (CV) was expressed as the percentage of surviving cells compared to the total number of cells: CV=(viable cells/total number of cells)×100.
(§2) The concentrations of drugs that were finally toxic to at least 50% of the cell population (IC50/cytotoxicity) were determined. Then, studies were performed looking at viability over the full range of carboplatin concentrations and compared to non-treated BCCs. At day 3-post treatment, viable resistant BCCs were selected and counted using standard protocols for downstream experiments on scaffolds.

T47D cells [3] = assay: Carboplatin cytotoxicity, trypan blue test; type: cell-based
Method: as §1, §2

T47D cells [4] = assay: Flow cytometry of CD44/CD24 expression of carboplatin treated cells; type: cell-based
[5] = system: MDA-MB-231 and T47D cells; assay: Western blots of breast cancer cell lines with increasing carboplatin dosage; type: cell-based; details: with increased carboplatin concentration
Method: Western blot was performed to detect the following proteins: Bax, Bcl-2, Oct-4 and Sox-2 for BCCs on scaffolds. Briefly, whole cell extracts were prepared with the NP-40 buffer and nuclear/cytoplasmic extracts with NE-PER Nuclear and Cytoplasmic Extraction kit. BCC extracts (20 μg) were subjected to electrophoresis on 4-20% SDS-PAGE (Bio-Rad; Hercules, Calif.). Proteins were transferred to PVDF membranes, and membranes were incubated overnight in the respective primary antibodies. This was followed by 2 h incubation with HRP-conjugated secondary antibodies at 1:2000 final dilutions. The latter was detected with chemiluminescence. Membranes were stripped with Restore Western Blot Stripping Buffer and then re-probed for other proteins, including β-actin mAb (1:4000 dilution). All bands were normalized to β-actin.

MDA-MB-231 cells [6] = assay: Carboplatin survival curve for chemotherapy treated and non-treated cells; type: cell-based; details: for percent viability: 220 μg/ml carboplatin
Method: as §1, §2

MDA-MB-231 cells [7] = details: treated cells
[8] = 2 days post treatment, maximum carboplatin concentration of 50 μg/ml
[9] = 3 days post treatment, 50 μg/ml carboplatin

N.N.O=C([O-])C1(C(=O)[O-])CCC1.[Pt+2] [carboplatin]
cell morphology (MDA-MB-231 cells [1]; 7 days post carboplatin treatment): fragmented and appeared to be dying
giant multi-nucleated cells in culture (MDA-MB-231 cells [1]; several hours post treatment with carboplatin): no longer present
death (MDA-MB-231 cells [2]; [8]): 17%
death (MDA-MB-231 cells [2]; [9]): 25%
death (T47D cells [3]; [8]): 28%
death (T47D cells [3]; [9]): 48%
CD44^+/CD24^+ cells (T47D cells [4]): 29%
CD44^+/CD24^− cells (T47D cells [4]): 0.01%
CD44^−/CD24^− cells (T47D cells [4]): 0.99%
CD44^−/low/CD24^+ cells (T47D cells [4]): 70%
Bcl-2 expression [5]: increased
Oct-4 expression [5]: increased
Sox2 expression [5]: increased
difference in percent viability between non-treated and treated cells (MDA-MB-231 cells [6]; 0 to 100 μg/ml carboplatin): no significant difference
percent viability (MDA-MB-231 cells [6]; chemo-treated cells): 80%
percent viability (MDA-MB-231 cells [6]; non-treated cells): 20%
decrease in percent viability (MDA-MB-231 cells [6]; non-treated cells, 100 to 120 μg/ml carboplatin): 30%
decrease in percent viability (MDA-MB-231 cells [6]; non-treated cells, 140 to 170 μg/ml carboplatin): 40%
decrease in percent viability (MDA-MB-231 cells [6]; non-treated cells, 170 to 220 μg/ml carboplatin): 80%
decrease in percent viability (MDA-MB-231 cells [6]; treated (chemoresistant) cells, 100 to 120 μg/ml carboplatin): 10%
decrease in percent viability (MDA-MB-231 cells [6]; treated (chemoresistant) cells, 140 to 170 μg/ml carboplatin): 20%
decrease in percent viability (MDA-MB-231 cells [6]; treated (chemoresistant) cells, 170 to 220 μg/ml carboplatin): 20%
CD44^+/CD24^+ cells (MDA-MB-231 cells [7]): 81.4%
CD44^+/CD24^− cells (MDA-MB-231 cells [7]): 18%
CD44^−/CD24^+ cells (MDA-MB-231 cells [7]): 0.09%
CD44^−/CD24^− cells (MDA-MB-231 cells [7]): 0.51%
